Patent US20240009175A9, “TETRAZOLE DERIVATIVES” (Merck Patent GmbH, priority 2020, published 2024)

What was measured:
human rec ACSS2 = human rec ACSS2 (Homo sapiens (Human), UniProt Q9NR19); test: Biochemical activity ACSS2 assay (AMP-Glo); conditions: human recombinant ACSS2, AMP-Glo, 180 min at 37° C.
How it was run: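 1 nM C-term myc-tagged recombinant human ACSS2 with 100 μM ATP, 100 μM Coenzyme A and 500 μM acetate (final concentrations), pH 7.5, 180 min at 37° C, compound from 30 μM over 10 concentrations. Released AMP quantified by AMP-Glo luminescence; zero set with 5 μM reference ACSS2 inhibitor, IC50 derived.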

ACSS2 = ACSS2 (Homo sapiens (Human), UniProt Q9NR19); test: Cellular assay of 14C acetate incorporation into histones (IC50 ACSS2 cellular histone); format: cell-based; conditions: HCT-15 cells
Chain of ACSS2 (Q9NR19 whole entry): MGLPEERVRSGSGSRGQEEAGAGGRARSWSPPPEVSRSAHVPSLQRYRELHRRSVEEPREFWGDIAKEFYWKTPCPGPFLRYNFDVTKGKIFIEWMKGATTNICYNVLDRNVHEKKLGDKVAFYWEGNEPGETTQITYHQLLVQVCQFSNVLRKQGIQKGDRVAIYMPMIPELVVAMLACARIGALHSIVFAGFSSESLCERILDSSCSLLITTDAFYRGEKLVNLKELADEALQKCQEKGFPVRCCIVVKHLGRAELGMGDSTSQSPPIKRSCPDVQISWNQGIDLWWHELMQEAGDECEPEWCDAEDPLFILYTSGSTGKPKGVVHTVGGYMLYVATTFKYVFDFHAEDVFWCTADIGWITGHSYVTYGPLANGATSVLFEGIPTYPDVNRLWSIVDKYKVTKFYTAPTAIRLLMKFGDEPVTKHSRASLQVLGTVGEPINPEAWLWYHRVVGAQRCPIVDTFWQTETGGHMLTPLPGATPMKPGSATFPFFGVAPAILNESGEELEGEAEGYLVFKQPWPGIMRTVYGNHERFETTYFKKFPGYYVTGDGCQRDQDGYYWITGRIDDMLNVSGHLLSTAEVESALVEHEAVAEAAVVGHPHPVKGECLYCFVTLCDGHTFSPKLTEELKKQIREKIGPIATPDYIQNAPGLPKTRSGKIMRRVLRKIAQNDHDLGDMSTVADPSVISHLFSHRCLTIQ
How it was run: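 HCT-15 cells preincubated 1 h with compound (0.25% DMSO), then pulsed 3 h with 14C-acetate in full DMEM/10% FBS. Histones acid-extracted (0.2 M HCl, overnight, 4 °C) after Triton lysis in sodium butyrate buffer; incorporated 14C counted by scintillation (CPM) to give IC50.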

Chain of human rec ACSS2 (Q9NR19 whole entry): as above

Compound	IC50 (human rec ACSS2)	IC50 (ACSS2)
CCc1c(C(O)(c2ccccc2)c2ccccc2)nc2cc(F)c(-c3nnn[nH]3)cn12 [Compound 3, [3-Ethyl-7-fluoro-6-(1H-tetrazol-5-yl)-imidazo[1,2-a]pyridin-2-yl]-diphenyl-methanol]	1 to 10 nM	100 to 10000 nM
CCn1c(C(O)(c2ccccc2)c2cccs2)nc2nc(OC)c(-c3nnn[nH]3)cc21 (racemic) [Compound 35, [1-ethyl-5-methoxy-6-(1H-1,2,3,4-tetrazol-5-yl)-1H-imidazo[4,5-b]pyridin-2-yl](phenyl)(thiophen-2-yl)methanol]	1 to 10 nM	1 to 10 nM
CCn1c(C(O)(c2ccccc2F)c2ccccc2F)nc2nc(C)c(-c3nnn[nH]3)cc21 [Compound 59, [1-ethyl-5-methyl-6-(1H-1,2,3,4-tetrazol-5-yl)-1H-imidazo[4,5-b]pyridin-2-yl]bis(2-fluorophenyl)methanol]	1 to 10 nM	100 to 10000 nM
CCn1c(C(O)(c2ccccc2)c2ccccc2)nc2nc(Cl)c(-c3nnn[nH]3)cc21 [Compound 51, [5-chloro-1-ethyl-6-(1H-1,2,3,4-tetrazol-5-yl)-1H-imidazo[4,5-b]pyridin-2-yl]diphenylmethanol]	1 to 10 nM	10 to 100 nM
CCc1c(C(O)(c2ccccc2)c2ccccc2)nc2cc(OC)c(-c3nnn[nH]3)cn12 [Compound 2, [3-Ethyl-7-methoxy-6-(1H-tetrazol-5-yl)-imidazo[1,2-a]pyridin-2-yl]-diphenyl-methanol]	1 to 10 nM	1 to 10 nM
CCc1c(C(O)(c2ccccc2F)c2ccccc2F)nc2cc(Cl)c(-c3nnn[nH]3)cn12 [Compound 5, [7-Chloro-3-ethyl-6-(1H-tetrazol-5-yl)-imidazo[1,2-a]pyridin-2-yl]-bis-(2-fluoro-phenyl)-methanol]	1 to 10 nM	100 to 10000 nM
CCc1c(C(O)(c2ccccc2)c2ccccc2)nn2cc(Cl)c(-c3nnn[nH]3)cc12 [Compound 21, [6-Chloro-3-ethyl-5-(1H-tetrazol-5-yl)-pyrazolo[1,5-a]pyridin-2-yl]-diphenyl-methanol]	1 to 10 nM	10 to 100 nM
CCn1c(C(O)(c2cccs2)c2cccs2)nc2nc(OC)c(-c3nnn[nH]3)cc21 [Compound 38, [1-ethyl-5-methoxy-6-(1H-1,2,3,4-tetrazol-5-yl)-1H-imidazo[4,5-b]pyridin-2-yl]bis(thiophen-2-yl)methanol]	1 to 10 nM	100 to 10000 nM
CCn1c(C(O)(c2ccccc2)c2ccccn2)nc2nc(OC)c(-c3nnn[nH]3)cc21 (racemic) [Compound 50, [1-ethyl-5-methoxy-6-(1H-1,2,3,4-tetrazol-5-yl)-1H-imidazo[4,5-b]pyridin-2-yl](phenyl)(pyridin-2-yl)methanol]	1 to 10 nM	0.01 to 1 nM
COc1nc2nc(C(O)(c3ccccc3)c3ccccc3)n(CCO)c2cc1-c1nnn[nH]1 [Compound 34, 2-[2-(hydroxy-diphenylmethyl)-5-methoxy-6-(1H-1,2,3,4-tetrazol-5-yl)-1H-imidazo[4,5-b]pyridin-1-yl]ethan-1-ol]	1 to 10 nM	100 to 10000 nM
CCc1c(C(O)(c2ccccc2F)c2ccccc2F)nc2cc(OC)c(-c3nnn[nH]3)cn12 [Compound 6, [3-Ethyl-7-methoxy-6-(1H-tetrazol-5-yl)-imidazo[1,2-a]pyridin-2-yl]-bis-(2-fluoro-phenyl)-methanol]	1 to 10 nM	1 to 10 nM
CCc1c(C(O)(c2ccccc2)c2ccccc2)nc2cc(Cl)c(-c3nnn[nH]3)cn12 [Compound 9, [7-Chloro-3-ethyl-6-(1H-tetrazol-5-yl)-imidazo[1,2-a]pyridin-2-yl]-diphenyl-methanol]	1 to 10 nM	100 to 10000 nM
CCc1c(C(O)(c2ccccc2)c2ccccc2)nn2cc(OC)c(-c3nnn[nH]3)cc12 [Compound 22, [3-Ethyl-6-methoxy-5-(1H-tetrazol-5-yl)-pyrazolo[1,5-a]pyridin-2-yl]-diphenyl-methanol]	1 to 10 nM	1 to 10 nM
CCn1c(C(O)(c2ccccc2)c2ccccc2)nc2nc(C)c(-c3nnn[nH]3)cc21 [Compound 62, [1-ethyl-5-methyl-6-(1H-1,2,3,4-tetrazol-5-yl)-1H-imidazo[4,5-b]pyridin-2-yl]diphenylmethanol]	1 to 10 nM	100 to 10000 nM
CCc1c(C(O)(c2ccccc2F)c2ccccc2F)nn2cc(OC)c(-c3nnn[nH]3)cc12 [Compound 19, [3-Ethyl-6-methoxy-5-(1H-tetrazol-5-yl)-pyrazolo[1,5-a]pyridin-2-yl]-bis-(2-fluoro-phenyl)-methanol]	1 to 10 nM	10 to 100 nM
CCc1c(C(O)(c2ccccc2)c2ccccn2)nc2cc(OC)c(-c3nnn[nH]3)cn12 (single isomer, unassigned) [Compound 11, [3-Ethyl-7-methoxy-6-(1H-tetrazol-5-yl)-imidazo[1,2-a]pyridin-2-yl]-phenyl-pyridin-2-yl-methanol]	1 to 10 nM	10 to 100 nM
CCn1c(C(O)(c2ccccc2F)c2ccccc2F)nc2nc(OC)c(-c3nnn[nH]3)cc21 [Compound 57, [1-ethyl-5-methoxy-6-(1H-1,2,3,4-tetrazol-5-yl)-1H-imidazo[4,5-b]pyridin-2-yl]bis(2-fluorophenyl)methanol]	0.01 to 1 nM	1 to 10 nM
CCc1c(C(O)(c2ccccc2)c2ccccc2)nc2ccc(-c3nnn[nH]3)cn12 [Compound 4, [3-Ethyl-6-(1 H-tetrazol-5-yl)-imidazo[1,2-a]pyridin-2-yl]-diphenyl-methanol]	10 to 100 nM	100 to 10000 nM
CCn1c(C(O)(c2ccccc2)c2ncccn2)nc2nc(OC)c(-c3nnn[nH]3)cc21 (racemic) [Compound 37, [1-ethyl-5-methoxy-6-(1H-1,2,3,4-tetrazol-5-yl)-1H-imidazo[4,5-b]pyridin-2-yl](phenyl)(pyrimidin-2-yl)methanol]	1 to 10 nM	1 to 10 nM
CCn1c(C(O)(c2ccccc2)c2ccccn2)nc2nc(OC)c(-c3nnn[nH]3)cc21 (single isomer, unassigned) [Compound 40, [1-ethyl-5-methoxy-6-(1H-1,2,3,4-tetrazol-5-yl)-1H-imidazo[4,5-b]pyridin-2-yl](phenyl)(pyridin-2-yl)methanol]	1 to 10 nM	0.01 to 1 nM
CCn1c(C(O)(c2ccccc2)c2ccccc2)nc2ncc(-c3nnn[nH]3)cc21 [Compound 60, [1-ethyl-6-(1H-1,2,3,4-tetrazol-5-yl)-1H-imidazo[4,5-b]pyridin-2-yl]diphenylmethanol]	10 to 100 nM	100 to 10000 nM
CCn1c(C(O)(c2ccccc2)c2ccccc2)nc2ccc(C(=O)NC[C@@H](C)O)cc21 [Reference Compound, 3-Ethyl-2-[hydroxy(diphenyl)methyl]-N-[(2R)-2-hydroxypropyl]benzimidazole-5-carboxamide, reference compound]	100 to 10000 nM	0.01 to 1 nM
CCn1c(C(O)(c2ccccc2)c2ccccc2)nc2nc(OC)c(-c3nnn[nH]3)cc21 [Compound 58, [1-ethyl-5-methoxy-6-(1H-1,2,3,4-tetrazol-5-yl)-1H-imidazo[4,5-b]pyridin-2-yl]diphenylmethanol]	0.01 to 1 nM	0.01 to 1 nM
